# Reference: patent US6723739B1, “Glucopyranoside benzothiophenes” (Eli Lilly and Company, priority 1994, dated 2004)
# Tests used:
# serum cholesterol = experiment: Serum cholesterol in the ovariectomized rat post-menopausal model; type: in vivo; details: OVX rats, daily for 4 days
# Protocol: (§1) A post-menopausal model was used in which effects of different treatments upon circulating lipids were determined.
# (§2) Seventy-five day old female Sprague Dawley rats (weight range of 200 to 225 g) were obtained from Charles River Laboratories (Portage, Mich.). The animals were either bilaterally ovariectomized (OVX) or exposed to a sham surgical procedure at Charles River Laboratories, and then shipped after one week. Upon arrival, they were housed in metal hanging cages in groups of 3 or 4 per cage and had ad libitum access to food (calcium content approximately 0.5%) and water for one week. Room temperature was maintained at 22.2°±1.7° C. with a minimum relative humidity of 40%. The photoperiod in the room was 12 hours light and 12 hours dark.
# (§3) Dosina Regimen/Tissue Collection. After a one week acclimation period (therefore, two weeks post-OVX) daily dosing with test compound was initiated. All compounds were administered subcutaneously at the dosages listed. Animals were dosed daily for 4 days. Following the dosing regimen animals were weighed and anesthetized with a ketamine: xylazine (2:1, [V:V] mixture and a blood sample was collected by cardiac puncture. The animals were then sacrificed by asphyxiation with CO2 and the uterus was removed through a midline incision and a wet weight was determined.
# Cholesterol Analysis. Blood samples were allowed to clot at room temperature for 2 hrs, and serum was obtained following centrifugation for 10 min at 3000 rpm. Serum cholesterol was determined using a Boehringer Mannheim Diagnostics high performance cholesterol assay. Briefly the cholesterol was oxidized to cholest-4-en-3-one and hydrogen peroxide. The hydrogen peroxide was then reacted with phenol and 4-aminophenazone in the presence of peroxidase to produce a p-quinone imine dye, which was read spectrophotometrically at 500 nm. Cholesterol concentration was then calculated against a standard curve. The entire assay was automated using a Biomek Automated workstation.
# [1] = tested on: uterine eosinophil peroxidase; experiment: Uterine eosinophil peroxidase (EPO) assay in ovariectomized rats; type: in vivo, rat; details: OVX rats, daily for 4 days
# Source text: as §2, §3
# Uterine Eosinophil Peroxidase (EPO) Assay. The presence of eosinophils in the uterus is an indication of estrogenic activity of a compound. To maintain EPO activity, uteri were kept at 4° C. until time of enzymatic analysis. The uteri were then homogenized in 50 volumes of 50 mM Tris buffer (pH-8.0) containing 0.005% Triton X-100. Upon addition of 0.01% hydrogen peroxide and 10 mM o-phenylenediamine (final concentrations) in Tris buffer, increase in absorbance was monitored for one minute at 450 nm. The maximal velocity of a 15 second interval was determined over the initial linear portion of the reaction curve.
# uterus = experiment: Uterine wet weight in ovariectomized rats; type: in vivo, rat; details: OVX rats, daily for 4 days, vs control OVX
# Protocol: as §1, §2, §3
# [2] = Systemic circulation and metabolites after oral raloxifene in humans; type: in vivo, human
EPO Activity (Vmax for eosinophil peroxidase activity) ([1]; 0.013 mg/kg subcutaneously) [n OD/min],EPO Activity (Vmax for eosinophil peroxidase activity) ([1]; 0.13 mg/kg subcutaneously) [n OD/min],EPO Activity (Vmax for eosinophil peroxidase activity) ([1]; 1.3 mg/kg subcutaneously) [n OD/min],% Uterine Wt. gain (uterus; 0.013 mg/kg subcutaneously) [%],% Uterine Wt. gain (uterus; 0.13 mg/kg subcutaneously) [%],% Uterine Wt. gain (uterus; 1.3 mg/kg subcutaneously) [%],Concentrations of raloxifene in systemic circulation ([2]; administered orally to humans),Metabolite status ([2]; human metabolite of raloxifene),Compound,% Decrease of Serum Cholesterol (serum cholesterol; 0.013 mg/kg subcutaneously) [%],% Decrease of Serum Cholesterol (serum cholesterol; 0.13 mg/kg subcutaneously) [%],% Decrease of Serum Cholesterol (serum cholesterol; 1.3 mg/kg subcutaneously) [%]
2.0,2.3,3.5,−21.3,14.2,24.1,–,–,O=C(c1ccc(OCCN2CCCCC2)cc1)c1c(-c2ccc(O)cc2)sc2cc(O[C@@H]3OC(C(=O)O)[C@@H](O)[C@H](O)[C@H]3O)ccc12 (some centres unmarked) [Ia],21.7,43.8,44.5
–,–,–,–,–,–,absence of detectable concentrations,–,"Cl.O=C(c1ccc(OCCN2CCCCC2)cc1)c1c(-c2ccc(O)cc2)sc2cc(O)ccc12 [raloxifene, 6-Hydroxy-2-(4-hydroxyphenyl)-3-[4-(2-piperidinoethoxy)benzoyl]benzo[b]thiophene, reference compound]",–,–,–
3.2,3.1,4.4,−7.7,14.5,36.1,–,predominant human metabolite,O=C(c1ccc(OCCN2CCCCC2)cc1)c1c(-c2ccc(O[C@@H]3O[C@H](C(=O)O)[C@@H](O)[C@H](O)[C@H]3O)cc2)sc2cc(O)ccc12 [Ib],13.6,21.9,56.8
